Experimental data taken from PubChem BioAssay AID2060908 (Molecular Pharmacology Branch, DTP, NCI, 2025).

Tested on: 186277-243-T-J2-PDC complex spheroids, viability
Experiment: Anticancer human tumor 186277-243-T-J2-PDC patient-derived colon adenocarcinoma cell line growth inhibition [RAS]
Conditions: for IC50: curve of first compound; for viability, T/C: stronger effect = lower value
Summary of the method: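 Tumour cells grown as complex spheroids with HUVEC endothelial cells and mesenchymal stem cells, treated with RAS pathway inhibitor combinations. Each agent spans half-log steps from near clinical Cmax, or 10 microM where Cmax is unknown.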

[1] = second compound 0.00316 µM, first compound 0.0316 µM
[2] = second compound 0.00316 µM, first compound 0.1 µM
[3] = second compound 0.00316 µM, first compound 0.316 µM
[4] = second compound 0.00316 µM, first compound 1 µM
[5] = second compound 0.00316 µM, first compound 3.16 µM
[6] = second compound 0.00316 µM, first compound 10 µM
[7] = second compound 0.01 µM, first compound 0.0316 µM
[8] = second compound 0.01 µM, first compound 0.1 µM
[9] = second compound 0.01 µM, first compound 0.316 µM
[10] = second compound 0.01 µM, first compound 1 µM
[11] = second compound 0.01 µM, first compound 3.16 µM
[12] = second compound 0.01 µM, first compound 10 µM
[13] = second compound 0.0316 µM, first compound 0.0316 µM
[14] = second compound 0.0316 µM, first compound 0.1 µM
[15] = second compound 0.0316 µM, first compound 0.316 µM
[16] = second compound 0.0316 µM, first compound 1 µM
[17] = second compound 0.0316 µM, first compound 3.16 µM
[18] = second compound 0.0316 µM, first compound 10 µM
[19] = second compound 0.1 µM, first compound 0.0316 µM
[20] = second compound 0.1 µM, first compound 0.1 µM
[21] = second compound 0.1 µM, first compound 0.316 µM
[22] = second compound 0.1 µM, first compound 1 µM
[23] = second compound 0.1 µM, first compound 3.16 µM
[24] = second compound 0.1 µM, first compound 10 µM
[25] = second compound 0.316 µM, first compound 0.0316 µM
[26] = second compound 0.316 µM, first compound 0.1 µM
[27] = second compound 0.316 µM, first compound 0.316 µM
[28] = second compound 0.316 µM, first compound 1 µM
[29] = second compound 0.316 µM, first compound 3.16 µM
[30] = second compound 0.316 µM, first compound 10 µM
[31] = second compound 1 µM, first compound 0.0316 µM
[32] = second compound 1 µM, first compound 0.1 µM
[33] = second compound 1 µM, first compound 0.316 µM
[34] = second compound 1 µM, first compound 1 µM
[35] = second compound 1 µM, first compound 3.16 µM
[36] = second compound 1 µM, first compound 10 µM
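Note: spheroids exposed to compounds for 7 days before viability read.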

Compound: CC(C)NCC(C(=O)N1CCN(c2ncnc3c2C(C)CC3O)CC1)c1ccc(Cl)cc1 (stereo not given) + C=CC(=O)N1CCN(c2nc(OCC3CCCN3C)nc3c(F)c(-c4nc(N)cc(C)c4C(F)(F)F)c(Cl)cc23)C(C)C1
- IC50 (second compound 0.00316 µM): 1680 nM
- IC50 (second compound 0.01 µM): 3220 nM
- IC50 (second compound 0.0316 µM): 2700 nM
- IC50 (second compound 0.1 µM): 2040 nM
- IC50 (second compound 0.316 µM): 2530 nM
- IC50 (second compound 1 µM): 1910 nM
- viability, T/C [1]: 94.2%
- viability, T/C [2]: 87%
- viability, T/C [3]: 113%
- viability, T/C [4]: 59.2%
- viability, T/C [5]: 43.6%
- viability, T/C [6]: 34%
- viability, T/C [7]: 78.7%
- viability, T/C [8]: 100%
- viability, T/C [9]: 101%
- viability, T/C [10]: 79.4%
- viability, T/C [11]: 51.4%
- viability, T/C [12]: 33.6%
- viability, T/C [13]: 72.3%
- viability, T/C [14]: 110%
- viability, T/C [15]: 77.1%
- viability, T/C [16]: 87.1%
- viability, T/C [17]: 44.1%
- viability, T/C [18]: 35.2%
- viability, T/C [19]: 93.2%
- viability, T/C [20]: 85.8%
- viability, T/C [21]: 103%
- viability, T/C [22]: 63.4%
- viability, T/C [23]: 47.6%
- viability, T/C [24]: 35.8%
- viability, T/C [25]: 91.4%
- viability, T/C [26]: 96.3%
- viability, T/C [27]: 89.1%
- viability, T/C [28]: 62.8%
- viability, T/C [29]: 49.9%
- viability, T/C [30]: 29.5%
- viability, T/C [31]: 107%
- viability, T/C [32]: 97.7%
- viability, T/C [33]: 87.5%
- viability, T/C [34]: 63.7%
- viability, T/C [35]: 38.9%
- viability, T/C [36]: 25.2%

Compound: CCc1c2c(nc3ccc(O)cc13)-c1cc3c(c(=O)n1C2)COC(=O)[C@]3(O)CC + C#Cc1c(F)ccc2cc(O)cc(-c3ncc4c(N5CC6CCC(C5)N6)nc(OCC56CCCN5CC(F)C6)nc4c3F)c12
- IC50 (second compound 0.0316 µM): 2.64 nM
- IC50 (second compound 0.1 µM): < 0.949 nM
- IC50 (second compound 0.316 µM): < 0.949 nM
- IC50 (second compound 1 µM): < 0.949 nM
- IC50 (second compound 3.16 µM): < 0.949 nM
- IC50 (second compound 10 µM): < 0.949 nM
- viability, T/C (second compound 0.0316 µM, first compound 0.000949 µM): 72.5%
- viability, T/C (second compound 0.0316 µM, first compound 0.003 µM): 40.5%
- viability, T/C (second compound 0.0316 µM, first compound 0.00949 µM): 36.7%
- viability, T/C (second compound 0.0316 µM, first compound 0.03 µM): 20.9%
- viability, T/C (second compound 0.0316 µM, first compound 0.0949 µM): 8.73%
- viability, T/C (second compound 0.0316 µM, first compound 0.3 µM): 5.87%
- viability, T/C (second compound 0.1 µM, first compound 0.000949 µM): 35.5%
- viability, T/C (second compound 0.1 µM, first compound 0.003 µM): 21.9%
- viability, T/C (second compound 0.1 µM, first compound 0.00949 µM): 16.6%
- viability, T/C (second compound 0.1 µM, first compound 0.03 µM): 12.2%
- viability, T/C (second compound 0.1 µM, first compound 0.0949 µM): 5.42%
- viability, T/C (second compound 0.1 µM, first compound 0.3 µM): 6.04%
- viability, T/C (second compound 0.316 µM, first compound 0.000949 µM): 14.3%
- viability, T/C (second compound 0.316 µM, first compound 0.003 µM): 14.1%
- viability, T/C (second compound 0.316 µM, first compound 0.00949 µM): 9.89%
- viability, T/C (second compound 0.316 µM, first compound 0.03 µM): 7.42%
- viability, T/C (second compound 0.316 µM, first compound 0.0949 µM): 5.03%
- viability, T/C (second compound 0.316 µM, first compound 0.3 µM): 3.68%
- viability, T/C (second compound 1 µM, first compound 0.000949 µM): 7.55%
- viability, T/C (second compound 1 µM, first compound 0.003 µM): 8.61%
- viability, T/C (second compound 1 µM, first compound 0.00949 µM): 8.45%
- viability, T/C (second compound 1 µM, first compound 0.03 µM): 6.92%
- viability, T/C (second compound 1 µM, first compound 0.0949 µM): 4.24%
- viability, T/C (second compound 1 µM, first compound 0.3 µM): 3.83%
- viability, T/C (second compound 3.16 µM, first compound 0.000949 µM): 8.46%
- viability, T/C (second compound 3.16 µM, first compound 0.003 µM): 7.85%
- viability, T/C (second compound 3.16 µM, first compound 0.00949 µM): 7.31%
- viability, T/C (second compound 3.16 µM, first compound 0.03 µM): 5.89%
- viability, T/C (second compound 3.16 µM, first compound 0.0949 µM): 4.55%
- viability, T/C (second compound 3.16 µM, first compound 0.3 µM): 2.75%
- viability, T/C (second compound 10 µM, first compound 0.000949 µM): 6.68%
- viability, T/C (second compound 10 µM, first compound 0.003 µM): 6.39%
- viability, T/C (second compound 10 µM, first compound 0.00949 µM): 6.05%
- viability, T/C (second compound 10 µM, first compound 0.03 µM): 5.42%
- viability, T/C (second compound 10 µM, first compound 0.0949 µM): 3.58%
- viability, T/C (second compound 10 µM, first compound 0.3 µM): 2.72%

Compound: CCc1c2c(nc3ccc(O)cc13)-c1cc3c(c(=O)n1C2)COC(=O)[C@]3(O)CC
- viability, T/C (compound 0.00949 µM): 71.8% [middle of 4 runs]
- viability, T/C (compound 0.03 µM): 47.5% [middle of 4 runs]
- viability, T/C (compound 0.0949 µM): 18.6% [middle of 4 runs]
- viability, T/C (compound 0.3 µM): 15.9% [middle of 4 runs]

Compound: NC1c2ccccc2OC12CCN(c1cnc3c(N4CCCc5ncccc54)n[nH]c3n1)CC2 (stereo not given) + C=CC(=O)N1CCN(c2nc(OCC3CCCN3C)nc3c(F)c(-c4nc(N)cc(C)c4C(F)(F)F)c(Cl)cc23)C(C)C1
- IC50 (second compound 0.00316 µM): > 10000 nM
- IC50 (second compound 0.01 µM): > 10000 nM
- IC50 (second compound 0.0316 µM): 9070 nM
- IC50 (second compound 0.1 µM): 9170 nM
- IC50 (second compound 0.316 µM): > 10000 nM
- IC50 (second compound 1 µM): > 10000 nM
- viability, T/C [1]: 83.8%
- viability, T/C [2]: 94.6%
- viability, T/C [3]: 101%
- viability, T/C [4]: 75%
- viability, T/C [5]: 64.4%
- viability, T/C [6]: 50.3%
- viability, T/C [7]: 100%
- viability, T/C [8]: 109%
- viability, T/C [9]: 100%
- viability, T/C [10]: 67.9%
- viability, T/C [11]: 72.6%
- viability, T/C [12]: 57.6%
- viability, T/C [13]: 95.5%
- viability, T/C [14]: 108%
- viability, T/C [15]: 89.6%
- viability, T/C [16]: 79.4%
- viability, T/C [17]: 82.1%
- viability, T/C [18]: 45.8%
- viability, T/C [19]: 85%
- viability, T/C [20]: 96.7%
- viability, T/C [21]: 77.4%
- viability, T/C [22]: 80.7%
- viability, T/C [23]: 84%
- viability, T/C [24]: 47.3%
- viability, T/C [25]: 108%
- viability, T/C [26]: 110%
- viability, T/C [27]: 88.7%
- viability, T/C [28]: 85.3%
- viability, T/C [29]: 84.3%
- viability, T/C [30]: 52.4%
- viability, T/C [31]: 112%
- viability, T/C [32]: 92.5%
- viability, T/C [33]: 79.6%
- viability, T/C [34]: 88.7%
- viability, T/C [35]: 78.5%
- viability, T/C [36]: 45%
